{
  "source": "paper PMC11325506",
  "about": "(ACS Omega, 2024)",
  "type_in_all_cases": "cell-based",
  "key": {"[1]": {"system": "Mycobacterium tuberculosis, strain H37Ra", "assay": "Antimycobacterial activity against M. tuberculosis H37Ra (luminescence, dose-response)", "details": "for IC50: Mycobacterium tuberculosis, 168 h, H37Ra lux, luminescence at day 7, top concentration 64 μM; for SI (selectivity index): calculated with the formula CC50/IC50 (MRC-5 cytotoxicity / H37Ra); for activity against Mtb H37Ra (in words): SAR discussion"}, "Mycobacterium abscessus": {"system": "Mycobacterium abscessus", "assay": "microbe, parasite or virus in culture", "details": "Mycobacteroides abscessus, 72 h, read-out: IC50 against M. abscessus"}, "[2]": {"assay": "In vitro cytotoxicity, resazurin assay", "details": "human, MRC-5 fibroblast cells (ATCC CCL-171), 3 days exposure", "description": "In vitro cytotoxicity was evaluated on the MRC-5 Homo sapiens […] fibroblast cell line (ATCC CCL-171). The MRC-5 cells were cultured in 75 cm^2 sterile Dulbecco’s modified Eagle’s medium (DMEM) supplemented with 10% heat-inactivated fetal calf serum in a 5% CO2 atmosphere at 37 °C. When a semiconfluent layer of cells was formed, the cells were trypsinized, washed with sterile PBS, seeded into a transparent, flat-bottomed 96-well plate at a density of 4 × 10^4 cells per well and left for recovery at 37 °C, 5% CO2 for at least 24 h. For each compound, a 2-fold serial dilution was made in complete DMEM with final concentrations ranging from 128 μM to 0.5 μM. Subsequently, the MRC-5 cells were exposed to the compounds by adding 100 μL of the serial dilutions to the wells. Test plates were incubated for 3 days in an atmosphere of 5% CO2 at 37 °C. For the resazurin assay, the cells were washed 2 times with 200 μL PBS, and 100 μL resazurin working solution was added per well. Subsequently, the plates were incubated at 37 °C, 5% CO2 for 3 h. To monitor the viable cell number after compound exposure, each well was analyzed using a microplate fluorometer equipped with a 560 nm excitation/590 nm emission filter set."}},
  "data": [
    {"smiles": "COc1ccc(-c2c(NCc3ccccn3)c(=O)c2=O)c2ccccc12", "note": "[Compound 6t, 3-(4-Methoxynaphthalen-1-yl)-4-((pyridin-2-ylmethyl)amino)cyclobut-3-ene-1,2-dione]", "values": [
      {"measurement": "IC50", "setting": "[1]", "result": "> 64", "unit": "µM"}
    ]},
    {"smiles": "O=c1c(NCc2ccccn2)c(-c2ccc(OC(F)(F)F)cc2)c1=O", "note": "[Compound 6d, 3-((Pyridin-2-ylmethyl)amino)-4-(4-(trifluoromethoxy)phenyl)cyclobut-3-ene-1,2-dione]", "values": [
      {"measurement": "IC50", "setting": "[1]", "result": 13.8, "unit": "µM"},
      {"measurement": "SI (selectivity index)", "setting": "[1]", "result": "> 4.6"}
    ]},
    {"smiles": "O=c1c(NCc2ccccn2)c(-c2ccc(Cl)cc2C(F)(F)F)c1=O", "note": "[Compound 6m, 3-(4-Chloro-2-(trifluoromethyl)phenyl)-4-((pyridin-2-ylmethyl)amino)cyclobut-3-ene-1,2-dione]", "values": [
      {"measurement": "IC50", "setting": "[1]", "result": "> 64", "unit": "µM"}
    ]},
    {"smiles": "COc1ccc(-c2c(NCc3ccccn3)c(=O)c2=O)cc1Cl", "note": "[Compound 6l, 3-(3-Chloro-4-methoxyphenyl)-4-((pyridin-2-ylmethyl)amino)cyclobut-3-ene-1,2-dione]", "values": [
      {"measurement": "IC50", "setting": "[1]", "result": 1.51, "unit": "µM"},
      {"measurement": "SI (selectivity index)", "setting": "[1]", "result": "> 42.4"}
    ]},
    {"smiles": "COc1ccc(-c2c(NCc3ccccn3)c(=O)c2=O)c(F)c1F", "note": "[Compound 6o, 3-(2,3-Difluoro-4-methoxyphenyl)-4-((pyridin-2-ylmethyl)amino)cyclobut-3-ene-1,2-dione]", "values": [
      {"measurement": "IC50", "setting": "[1]", "result": "> 64", "unit": "µM"}
    ]},
    {"smiles": "CCOc1ccc2cc(-c3c(NCc4ccccn4)c(=O)c3=O)ccc2c1", "note": "[Compound 6w, 3-(6-Ethoxynaphthalen-2-yl)-4-((pyridin-2-ylmethyl)amino)cyclobut-3-ene-1,2-dione]", "values": [
      {"measurement": "IC50", "setting": "[1]", "result": "> 64", "unit": "µM"},
      {"measurement": "activity against Mtb H37Ra (in words)", "setting": "[1]", "result": "completely inactive"}
    ]},
    {"smiles": "CCOc1c(C)cc(-c2c(NCc3ccccn3)c(=O)c2=O)cc1C", "note": "[Compound 6r, 3-(4-Ethoxy-3,5-dimethylphenyl)-4-((pyridin-2-ylmethyl)amino)cyclobut-3-ene-1,2-dione]", "values": [
      {"measurement": "IC50", "setting": "[1]", "result": 13.5, "unit": "µM"},
      {"measurement": "SI (selectivity index)", "setting": "[1]", "result": "> 4.7"}
    ]},
    {"smiles": "Cc1ccc(-c2c(NCc3ccccn3)c(=O)c2=O)s1", "note": "[Compound 6z, 3-(5-Methylthiophen-2-yl)-4-((pyridin-2-ylmethyl)amino)cyclobut-3-ene-1,2-dione]", "values": [
      {"measurement": "IC50", "setting": "[1]", "result": 2.98, "unit": "µM"},
      {"measurement": "SI (selectivity index)", "setting": "[1]", "result": "> 21.5"}
    ]},
    {"smiles": "O=c1c(NCc2ccccn2)c(-c2ccc(OCc3ccc(F)cc3)cc2)c1=O", "note": "[Compound 6j, 3-(4-((4-Fluorobenzyl)oxy)phenyl)-4-((pyridin-2-ylmethyl)amino)cyclobut-3-ene-1,2-dione]", "values": [
      {"measurement": "IC50", "setting": "[1]", "result": "> 64", "unit": "µM"}
    ]},
    {"smiles": "Cc1ccc(-c2c(NCc3ccccn3)c(=O)c2=O)cc1", "note": "[Compound 6a, 3-((Pyridin-2-ylmethyl)amino)-4-(p-tolyl)cyclobut-3-ene-1,2-dione]", "values": [
      {"measurement": "IC50", "setting": "[1]", "result": 2.01, "unit": "µM"},
      {"measurement": "SI (selectivity index)", "setting": "[1]", "result": "> 31.8"}
    ]},
    {"smiles": "O=c1c(NCc2ccccn2)c(-c2ccc(OCc3ccccc3)c(Cl)c2)c1=O", "note": "[Compound 6k, 3-(4-(Benzyloxy)-3-chlorophenyl)-4-((pyridin-2-ylmethyl)amino)cyclobut-3-ene-1,2-dione]", "values": [
      {"measurement": "IC50", "setting": "[1]", "result": "> 64", "unit": "µM"}
    ]},
    {"smiles": "O=c1c(NCc2ccccn2)c(-c2cccc3ccccc23)c1=O", "note": "[Compound 6s, 3-(Naphthalen-1-yl)-4-((pyridin-2-ylmethyl)amino)cyclobut-3-ene-1,2-dione]", "values": [
      {"measurement": "IC50", "setting": "[1]", "result": "> 64", "unit": "µM"}
    ]},
    {"smiles": "O=c1c(NCc2ccccn2)c(-c2ccc(F)c(F)c2)c1=O", "note": "[Compound 6n, 3-(3,4-Difluorophenyl)-4-((pyridin-2-ylmethyl)amino)cyclobut-3-ene-1,2-dione]", "values": [
      {"measurement": "IC50", "setting": "[1]", "result": 2.46, "unit": "µM"},
      {"measurement": "SI (selectivity index)", "setting": "[1]", "result": "> 26.0"}
    ]},
    {"smiles": "O=c1c(NCc2ccccn2)c(-c2ccc(Br)cc2)c1=O", "note": "[Compound 6b, 3-(4-Bromophenyl)-4-((pyridin-2-ylmethyl)amino)cyclobut-3-ene-1,2-dione]", "values": [
      {"measurement": "IC50", "setting": "[1]", "result": 3.49, "unit": "µM"},
      {"measurement": "SI (selectivity index)", "setting": "[1]", "result": "> 18.3"}
    ]},
    {"smiles": "COc1c(N2C[C@@H]3CCCN[C@@H]3C2)c(F)cc2c(=O)c(C(=O)O)cn(C3CC3)c12", "note": "[Moxifloxacin]", "values": [
      {"measurement": "IC50", "setting": "Mycobacterium abscessus", "result": 1.74, "unit": "µM"}
    ]},
    {"smiles": "CC(C)(C)Oc1ccc(-c2c(NCc3ccccn3)c(=O)c2=O)cc1", "note": "[Compound 6f, 3-(4-(tert-Butoxy)phenyl)-4-((pyridin-2-ylmethyl)amino)cyclobut-3-ene-1,2-dione]", "values": [
      {"measurement": "IC50", "setting": "[1]", "result": 4.67, "unit": "µM"},
      {"measurement": "SI (selectivity index)", "setting": "[1]", "result": "> 13.7"}
    ]},
    {"smiles": "CCCOc1ccc(-c2c(NCc3ccccn3)c(=O)c2=O)c(F)c1F", "note": "[Compound 6p, 3-(2,3-Difluoro-4-propoxyphenyl)-4-((pyridin-2-ylmethyl)amino)cyclobut-3-ene-1,2-dione]", "values": [
      {"measurement": "IC50", "setting": "[1]", "result": "> 64", "unit": "µM"},
      {"measurement": "activity against Mtb H37Ra (in words)", "setting": "[1]", "result": "completely inactive"}
    ]},
    {"smiles": "COCCOc1ccc(-c2c(NCc3ccccn3)c(=O)c2=O)cc1", "note": "[Compound 6g, 3-(4-(2-Methoxyethoxy)phenyl)-4-((pyridin-2-ylmethyl)amino)cyclobut-3-ene-1,2-dione]", "values": [
      {"measurement": "IC50", "setting": "[1]", "result": 8.69, "unit": "µM"},
      {"measurement": "SI (selectivity index)", "setting": "[1]", "result": "> 7.4"}
    ]},
    {"smiles": "O=c1c(NCc2ccccn2)c(-c2ccc3c(c2)OCO3)c1=O", "note": "[Compound 6u, 3-(Benzo[d][1,3]dioxol-5-yl)-4-((pyridin-2-ylmethyl)amino)cyclobut-3-ene-1,2-dione]", "values": [
      {"measurement": "IC50", "setting": "[1]", "result": 19.9, "unit": "µM"},
      {"measurement": "SI (selectivity index)", "setting": "[1]", "result": "> 3.2"}
    ]},
    {"smiles": "O=c1c(NCc2ccccn2)c(-c2ccc(Oc3ccccc3)cc2)c1=O", "note": "[Compound 6h, 3-(4-Phenoxyphenyl)-4-((pyridin-2-ylmethyl)amino)cyclobut-3-ene-1,2-dione]", "values": [
      {"measurement": "IC50", "setting": "[1]", "result": "> 64", "unit": "µM"}
    ]},
    {"smiles": "CCCCOc1ccc(-c2c(NCc3ccccn3)c(=O)c2=O)c(F)c1F", "note": "[Compound 6q, 3-(4-Butoxy-2,3-difluorophenyl)-4-((pyridin-2-ylmethyl)amino)cyclobut-3-ene-1,2-dione]", "values": [
      {"measurement": "IC50", "setting": "[1]", "result": "> 64", "unit": "µM"},
      {"measurement": "activity against Mtb H37Ra (in words)", "setting": "[1]", "result": "completely inactive"}
    ]},
    {"smiles": "O=c1c(NCc2ccccn2)c(-c2ccc(OCc3ccccc3)cc2)c1=O", "note": "[Compound 6i, 3-(4-(Benzyloxy)phenyl)-4-((pyridin-2-ylmethyl)amino)cyclobut-3-ene-1,2-dione]", "values": [
      {"measurement": "IC50", "setting": "[1]", "result": "> 64", "unit": "µM"}
    ]},
    {"smiles": "CSc1ccc(-c2c(NCc3ccccn3)c(=O)c2=O)cc1", "note": "[Compound 6e, 3-(4-(Methylthio)phenyl)-4-((pyridin-2-ylmethyl)amino)cyclobut-3-ene-1,2-dione]", "values": [
      {"measurement": "IC50", "setting": "[1]", "result": 4.56, "unit": "µM"},
      {"measurement": "SI (selectivity index)", "setting": "[1]", "result": "> 14.0"}
    ]},
    {"smiles": "O=c1c(NCc2ccccn2)c(-c2ccc3c(c2)OCCO3)c1=O", "note": "[Compound 6v, 3-(2,3-Dihydrobenzo[b][1,4]dioxin-6-yl)-4-((pyridin-2-ylmethyl)amino)cyclobut-3-ene-1,2-dione]", "values": [
      {"measurement": "IC50", "setting": "[1]", "result": 3.37, "unit": "µM"},
      {"measurement": "SI (selectivity index)", "setting": "[1]", "result": "> 19.0"}
    ]},
    {"smiles": "COc1nc2ccc(Br)cc2cc1[C@@H](c1ccccc1)[C@@](O)(CCN(C)C)c1cccc2ccccc12", "note": "[Bedaquiline, reference compound]", "values": [
      {"measurement": "IC50", "setting": "[1]", "result": 0.01, "unit": "µM"}
    ]},
    {"smiles": "CC/C(=C(\\c1ccccc1)c1ccc(OCCN(C)C)cc1)c1ccccc1", "note": "[Tamoxifen]", "values": [
      {"measurement": "IC50 at 3 days", "setting": "[2]", "result": 12.3, "unit": "µM"}
    ]},
    {"smiles": "O=c1c(NCc2ccccn2)c(-c2ccoc2)c1=O", "note": "[Compound 6x, 3-(Furan-3-yl)-4-((pyridin-2-ylmethyl)amino)cyclobut-3-ene-1,2-dione]", "values": [
      {"measurement": "IC50", "setting": "[1]", "result": 29.1, "unit": "µM"},
      {"measurement": "SI (selectivity index)", "setting": "[1]", "result": "> 2.2"}
    ]},
    {"smiles": "O=c1c(NCc2ccccn2)c(-c2ccc(O)cc2)c1=O", "note": "[Compound 6c, 3-(4-Hydroxyphenyl)-4-((pyridin-2-ylmethyl)amino)cyclobut-3-ene-1,2-dione]", "values": [
      {"measurement": "IC50", "setting": "[1]", "result": 21.9, "unit": "µM"},
      {"measurement": "SI (selectivity index)", "setting": "[1]", "result": "> 2.9"}
    ]},
    {"smiles": "O=c1c(NCc2ccccn2)c(-c2ccsc2)c1=O", "note": "[Compound 6y, 3-((Pyridin-2-ylmethyl)amino)-4-(thiophen-3-yl)cyclobut-3-ene-1,2-dione]", "values": [
      {"measurement": "IC50", "setting": "[1]", "result": "> 64", "unit": "µM"}
    ]}
  ]
}
